Entries after “also recorded” stand apart in the source; their conditions may differ. Where a SMILES comes first, the peptide text is derived from it. The star is where a group is joined. Cbz = O=C(OCc1ccccc1)*
Target: SARS-CoV-2 M^Pro (Severe acute respiratory syndrome coronavirus 2, UniProt P0DTD1, Q3569G)
Assay type: cell-based

| Compound | cellular inhibition of M^Pro (in words) |
| --- | --- |
| CCN(CCO)CCCC(C)Nc1ccnc2cc(Cl)ccc12 (stereo not drawn) [hydroxychloroquine] | relatively weak to undetectable; also recorded: close to undetectable |
| CCC[C@H](NC(=O)[C@@H]1[C@H]2CCC[C@H]2CN1C(=O)[C@@H](NC(=O)[C@@H](NC(=O)c1cnccn1)C1CCCCC1)C(C)(C)C)C(=O)C(=O)NC1CC1 [telaprevir] | close to undetectable |
| CCN(CC)CCCC(C)Nc1ccnc2cc(Cl)ccc12 (stereo not drawn) [chloroquine] | relatively weak to undetectable; also recorded: close to undetectable |
| CCCC[C@@H](C=O)NC(=O)[C@H](CC(C)C)NC(=O)OCc1ccccc1 [calpeptin] | close to undetectable |
| CC(C)COCC(CN(Cc1ccccc1)c1ccccc1)N1CCCC1 (stereo not drawn) [bepridil] | relatively weak to undetectable; also recorded: very weak inhibition; also recorded: close to undetectable |
| O=c1c2ccccc2[se]n1-c1ccccc1 [ebselen] | relatively weak to undetectable |
| CCCCCCNC(=O)n1cc(F)c(=O)[nH]c1=O [carmofur] | undetectable |
| CC(C)C[C@@H](C=O)NC(=O)[C@H](CC(C)C)NC(=O)[C@H](CC(C)C)NC(=O)OCc1ccccc1 [MG-132] (Cbz-Leu-Leu-Leu-aldehyde) | close to undetectable |
| CC(C)(C)NC(=O)N[C@H](C(=O)N1C[C@H]2[C@@H]([C@H]1C(=O)NC(CC1CCC1)C(=O)C(N)=O)C2(C)C)C(C)(C)C (stereo partly drawn) [boceprevir] | close to undetectable; also recorded: very weak |

Source: PMC8848508 (ACS Central Science, 2022)
